Reference: the supplement of paper PMC11208160

Assay: recombinant UMI read abundance after kanamycin selection (control-corrected) (log10(CPM+1)); higher = more efficient recombination; extreme values may be limits of the assay; sequences stand for … in AGTGCAGAGAAAATCGGCCAGTTTTCTCTGCCTGCAGTCCGCATGCCGTGGGACCCCTTGGGTTCTAACCTGTTGCCTAGATTTATGCAGCGGACTGCCTTTCTCCCAAAGTGATAAACCGG…AGGTTGGTTTCACT; site = the 11-nt donor
Description: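 Pooled E. coli donor-specificity screen for the IS621 bridge recombinase. Each library member carries a reprogrammed 11-nt donor and a full-length LE bridge RNA expressed in cis from the natural promoter, with a paired donor-binding loop (8-nt LDG + 4-nt RDG) and a target-binding loop fixed to T5. It is co-electroporated with a T5 target plasmid; recombinase is induced with 0.07 mM IPTG and recombinants are selected on kanamycin. UMIs are counted as CPM, averaged over two biological replicates and corrected by the unselected control. Molecule = full bridge RNA written as DNA, built from the T5 scaffold: LDG = donor specificity nt 1-8, RDG = reverse complement of nt 8-11.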
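Also: IS621 bridge recombinase in Escherichia coli cells against a fixed T5 target plasmid.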

Sequence	recombinant UMI read abundance (log10)
CGTTGAACATGGACCGGTTTTCCCGGTAATCCGTATTTGGA (site CGTTGAACTTC)	0.945
CCCACCGCATGGACCGGTTTTCCCGGTAATCCGTATTTGCC (site CCCACCGCTGG)	0.815
CAAGTAGCATGGACCGGTTTTCCCGGTAATCCGTATTTGCT (site CAAGTAGCTAG)	1.66
GTTAGAACATGGACCGGTTTTCCCGGTAATCCGTATTTGGC (site GTTAGATCTGC)	0.83
AGTAGTACATGGACCGGTTTTCCCGGTAATCCGTATTTGGT (site AGTAGTACTAC)	0.706
CGATCATCATGGACCGGTTTTCCCGGTAATCCGTATTTGCT (site CGCTCCTCTAG)	0
TAAAGTCCATGGACCGGTTTTCCCGGTAATCCGTATTTGTA (site TAAAGTCCTTA)	0.722
CCTATGGCATGGACCGGTTTTCCCGGTAATCCGTATTTGGT (site CCTATGGCTAC)	0.012
AATAGAACATGGACCGGTTTTCCCGGTAATCCGTATTTGAG (site AGTAGAACTCT)	0.412
TCGCTGACATGGACCGGTTTTCCCGGTAATCCGTATTTGTA (site TCGCTGACTTA)	1.3
GCTCGCGCATGGACCGGTTTTCCCGGTAATCCGTATTTGGT (site GCTCGCGCTAC)	0.984
GATGAAACATGGACCGGTTTTCCCGGTAATCCGTATTTGCC (site GATGAAACTGG)	1.72
CGATCATCATGGACCGGTTTTCCCGGTAATCCGTATTTGCT (site CGATCACCTAG)	0
TAGCTTACATGGACCGGTTTTCCCGGTAATCCGTATTTGTC (site TAGCTTACTGA)	1.56
CAGTCGCCATGGACCGGTTTTCCCGGTAATCCGTATTTGGG (site CAGTCGCCTCC)	0.0028
GTCTGAGCATGGACCGGTTTTCCCGGTAATCCGTATTTGGA (site GTCTGAGCTTC)	0.754
CGGTCAGCATGGACCGGTTTTCCCGGTAATCCGTATTTGCT (site CGGTCAGCTAG)	1.12
TAAAGTGCATGGACCGGTTTTCCCGGTAATCCGTATTTGTA (site TAAAGTACTTA)	1.36
CTTCCCTCATGGACCGGTTTTCCCGGTAATCCGTATTTGTG (site CTTCCCTCTCA)	0.257
CAGTTTACATGGACCGGTTTTCCCGGTAATCCGTATTTGCT (site CGGTTTACTAG)	0
TAGAATACATGGACCGGTTTTCCCGGTAATCCGTATTTGCA (site TAGAATTCTTG)	0
GGGCCACCATGGACCGGTTTTCCCGGTAATCCGTATTTGCA (site GGGACACCTTG)	0
AATGGTGCATGGACCGGTTTTCCCGGTAATCCGTATTTGGT (site AATGGTGCTAC)	1.04
GCTAGCCCATGGACCGGTTTTCCCGGTAATCCGTATTTGAT (site GCTAGCCCTAT)	0.197

Sequence	recombinant UMI read abundance (log10)
TCCACCGCATGGACCGGTTTTCCCGGTAATCCGTATTTGCG (site TGCACCGCTCG)	0.0462
GAATCGCCATGGACCGGTTTTCCCGGTAATCCGTATTTGCA (site GAATTGCCTTG)	0
GCGAAATCATGGACCGGTTTTCCCGGTAATCCGTATTTGCT (site GCGAAACCTAG)	0
CGGAAGACATGGACCGGTTTTCCCGGTAATCCGTATTTGCC (site AGGAAGACTTG)	0
CGCCGTACATGGACCGGTTTTCCCGGTAATCCGTATTTGTT (site CGCCGTACTAT)	0.0268
GGCCATCCATGGACCGGTTTTCCCGGTAATCCGTATTTGAA (site GGCGATCCTTT)	0.00507
CGTTAGACATGGACCGGTTTTCCCGGTAATCCGTATTTGAG (site CGTTACACTCT)	0.00825
CGGTCGACATGGACCGGTTTTCCCGGTAATCCGTATTTGTT (site CGGTCGACTAA)	0.226
CGGAATCCATGGACCGGTTTTCCCGGTAATCCGTATTTGTT (site CGGATTCCTAG)	0
CGGAATCCATGGACCGGTTTTCCCGGTAATCCGTATTTGTT (site CGAGATCCTAA)	0
TGGCCGGCATGGACCGGTTTTCCCGGTAATCCGTATTTGGT (site TGGCCGGCTAC)	0.0121
ATAAGGCCATGGACCGGTTTTCCCGGTAATCCGTATTTGAG (site ATAAGGCCTAT)	0.00358
GGGGAGGCATGGACCGGTTTTCCCGGTAATCCGTATTTGTG (site GCGGAGGCTCA)	0.00803
TGGCTTCCATGGACCGGTTTTCCCGGTAATCCGTATTTGCT (site TGGCTTCCTAG)	0
GTGGAGTCATGGACCGGTTTTCCCGGTAATCCGTATTTGTG (site GTGGAGACTCA)	1.34
CCGGAGTCATGGACCGGTTTTCCCGGTAATCCGTATTTGCC (site CAGGAGTCTGG)	0
CTTCTCTCATGGACCGGTTTTCCCGGTAATCCGTATTTGTA (site CTTCTGTCTTA)	0.00544
ACATCTACATGGACCGGTTTTCCCGGTAATCCGTATTTGTG (site ACATCTACTCT)	0.188
GGATACACATGGACCGGTTTTCCCGGTAATCCGTATTTGCC (site GGATAGACTGG)	0
GCGAGGCCATGGACCGGTTTTCCCGGTAATCCGTATTTGGG (site GCGAGGCCTCC)	0.0117
AGGCAGACATGGACCGGTTTTCCCGGTAATCCGTATTTGGA (site AGGAAGACTTG)	0
AGGAATACATGGACCGGTTTTCCCGGTAATCCGTATTTGAC (site AGGATTACTGT)	0
ATAGGTACATGGACCGGTTTTCCCGGTAATCCGTATTTGAC (site GTAGGTACTGT)	1.68
TAAAGTCCATGGACCGGTTTTCCCGGTAATCCGTATTTGTA (site TAAGGTCCTTA)	0.198

Sequence	recombinant UMI read abundance (log10)
CGGAATCCATGGACCGGTTTTCCCGGTAATCCGTATTTGTT (site CGGTAGCCTAA)	0.0806
GCCACGCCATGGACCGGTTTTCCCGGTAATCCGTATTTGAA (site GCCACGCCTTT)	0.0176
CTGAATCCATGGACCGGTTTTCCCGGTAATCCGTATTTGTT (site CCGAATCCTAA)	0
ATCTATACATGGACCGGTTTTCCCGGTAATCCGTATTTGAT (site ATCTATACTGT)	0
CCAGGTGCATGGACCGGTTTTCCCGGTAATCCGTATTTGAG (site CCAGGTGCTAT)	0.721
GGAGTGGCATGGACCGGTTTTCCCGGTAATCCGTATTTGAT (site GGAGTGGCTAG)	0
GGGGAGTCATGGACCGGTTTTCCCGGTAATCCGTATTTGCC (site TGGGAGTCTGG)	1.02
AACCACGCATGGACCGGTTTTCCCGGTAATCCGTATTTGGG (site AATCACGCTCC)	0.00485
CAAGTCACATGGACCGGTTTTCCCGGTAATCCGTATTTGGA (site CAAGTCACTTC)	2.03
GGTTTGTCATGGACCGGTTTTCCCGGTAATCCGTATTTGTG (site GGTTTGTCTCA)	1.21
CGTTTGGCATGGACCGGTTTTCCCGGTAATCCGTATTTGCG (site CGTTTGGCTTG)	0
AAGTTGGCATGGACCGGTTTTCCCGGTAATCCGTATTTGCA (site AAGTTGGCTTG)	2.05
CGATCATCATGGACCGGTTTTCCCGGTAATCCGTATTTGCT (site GGATGATCTAG)	0
CGGAATCCATGGACCGGTTTTCCCGGTAATCCGTATTTGTT (site CGGAGTACTAA)	0.00934
GCTTGCTCATGGACCGGTTTTCCCGGTAATCCGTATTTGAT (site GCTTGCCCTAT)	0
AACCTAGCATGGACCGGTTTTCCCGGTAATCCGTATTTGTT (site AACCTAGCTAA)	0.0287
CAAATGGCATGGACCGGTTTTCCCGGTAATCCGTATTTGCA (site CAAATGGCTTG)	2.04
CCGCCAGCATGGACCGGTTTTCCCGGTAATCCGTATTTGGG (site CCGCCAGCTCC)	0
CGATCCACATGGACCGGTTTTCCCGGTAATCCGTATTTGTT (site CGATCGACTAA)	0.00891
ACATATACATGGACCGGTTTTCCCGGTAATCCGTATTTGTG (site ACATGTACTCA)	0.021
CGATCATCATGGACCGGTTTTCCCGGTAATCCGTATTTGCT (site CGCTAATCTAG)	0
AGTCGTACATGGACCGGTTTTCCCGGTAATCCGTATTTGGA (site AGTCGTACTTC)	0.529
AGAAAGGCATGGACCGGTTTTCCCGGTAATCCGTATTTGCA (site AGAAAGGCTTG)	1.9
CCGTTTACATGGACCGGTTTTCCCGGTAATCCGTATTTGCA (site CCGTTTACTGG)	0
